The results in this text go back to PubChem BioAssay (NCI).

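A five-concentration, 48-hour dose response in 96-well plates underlies each endpoint, interpolated linearly between surrounding concentrations. TGI denotes the concentration required for complete inhibition of growth.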 A value given as a limit tells only on which side of the number the result lay.

Common to all, as to experiment: growth of human tumour cells (NCI), 48 h
Experiment [1] relates to M14 melanoma.
The subject of experiment [2] is SF-539 CNS.
Experiment [3] concerns UACC-62 melanoma.
Experiment [4] relates to OVCAR-8 ovarian.
Experiment [5] has as its system DU-145 prostate.
In experiment [6] the test system is CAKI-1 renal.
Experiment [7] deals with RPMI-8226 leukemia.
The subject of experiment [8] is NCI-H226 lung.
The subject of experiment [9] is NCI-H522 lung.
In experiment [10] the test system is OVCAR-5 ovarian.

Regarding `COP(=O)(OC)C(NC=O)P(=O)(OC)OC`, the TGI in [1], in [2], in [3], in experiment [4], in experiment [5] and in experiment [6] was > 100 µM in each case. Further, the TGI in experiment [7] and in experiment [8] was > 100 µM each time.

On to `CC(=O)Nc1ccc(C(=O)N2N=C(C)/C(=C/c3cccc([N+](=O)[O-])c3)C2=O)cc1`, for which the TGI in experiment [1], in experiment [9], in [2], in experiment [10], in [4] and in experiment [6] was > 100 µM throughout. In addition, the TGI in experiment [7] and in experiment [8] was > 100 µM in each case.

In the case of `CC1C2CC(C/C2=N/O)C1(C)C` (centres undefined), the TGI in [1], in [9], in experiment [2], in experiment [10], in experiment [3] and in experiment [4] was > 100 µM throughout. In addition, the TGI in [5], in experiment [6] and in [8] was > 100 µM throughout.

Regarding `CCC(=O)NC(OCC1(CC)COC1)(C(F)(F)F)C(F)(F)F`, the TGI in experiment [1], in experiment [9], in experiment [2], in experiment [10], in experiment [3] and in experiment [5] was > 100 µM each time. Also, the TGI in experiment [7] and in [8] was > 100 µM throughout.

For `C=CC(C)(C)c1cc([C@@H]2COc3cc(O)ccc3C2=O)c(O)c(O)c1OC`, the TGI is 46.5 µM in [1]; 38.1 µM in experiment [9]; 57.9 µM in experiment [2]; > 100 µM in [10]; 34.4 µM in experiment [3]; 30.9 µM in experiment [4]. Further, the figures for the TGI in experiment [5], in [6] and in [8] were 46.2 µM, 27.4 µM and > 100 µM, respectively.

Regarding `C=CCC1(CC)C(=O)NC(=O)NC1=O`, the TGI in experiment [1], in experiment [9], in [2], in experiment [3], in experiment [4] and in experiment [7] was > 100 µM each time. Also, the TGI in experiment [8] was > 100 µM.

Turning to `COc1cc2c(cc1C)NC(=O)/C2=C\c1ccncc1`, the TGI worked out at 12.9 µM in experiment [1]; 9.53 µM in experiment [9]; 8.45 µM in experiment [2]; 29.1 µM in experiment [10]; 21.1 µM in experiment [3]; 5.92 µM in experiment [4]. Moreover, the TGI worked out at 53.6 µM in experiment [5] and 16.5 µM in experiment [6].

Take `COc1cc([C@H]2Oc3c(OC)cc(CCCO)cc3[C@@H]2CO)ccc1O`: the TGI in experiment [1], in experiment [9], in [2], in experiment [10], in [3] and in experiment [4] was > 100 µM in each case. The TGI in [5], in experiment [7] and in experiment [8] was > 100 µM in each case.

`O=S1(=O)C(c2ccccc2)=C(O)c2ccccc21`: the TGI in experiment [1], in experiment [9], in experiment [2], in experiment [10], in [3] and in [4] was > 100 µM each time. Besides, the TGI in [5], in experiment [7] and in experiment [8] was > 100 µM in each case.

Consider `O=C1CCC2(O)C3Cc4ccc(Oc5nnnn5-c5ccccc5)c5c4C2(CCN3CC2CC2)C1O5` (centres undefined), for which the TGI was 33.5 µM in experiment [1]; 61.6 µM in experiment [9]; > 100 µM in experiment [10]; 76 µM in experiment [3]; > 100 µM in experiment [4]; > 100 µM in [5]. The TGI in experiment [6] and in experiment [7] was > 100 µM throughout.

Turning to `C/C=C/[C@H]1O[C@@](O)([C@@H](C)[C@H](O)[C@H](C)[C@H]2OC(=O)/C(OC)=C/C(C)=C/[C@@H](C)[C@@H](O)[C@@H](CC)[C@@H](O)[C@H](C)C/C(C)=C/C=C/[C@@H]2OC)C[C@H](OC2CC(O)C(OC(N)=O)C(C)O2)[C@@H]1C` (some centres undefined), the TGI is 0.0387 µM in experiment [1]; 7.39 µM in experiment [9]; 25.7 µM in experiment [10]; 13.2 µM in [3]; 21.2 µM in experiment [4]; 21.6 µM in [5]. Also, the results for the TGI in [6] and in [7] were 14.4 µM and 0.205 µM, respectively.

For `COc1cccc(NC(=O)CC(=O)NNCC(=O)Nc2nnc(-c3ccc(N(CCC#N)S(=O)(=O)c4ccccc4)cc3)s2)c1`, the TGI in [9], in [2], in experiment [10], in experiment [3], in experiment [4] and in [6] was > 100 µM in each case. Also, the TGI in experiment [7] and in experiment [8] was > 100 µM in each case.

With `CN(/N=N/c1nc[nH]c1C(N)=O)C1CCCCC1`, the TGI in [1], in experiment [9], in experiment [2], in experiment [10], in [3] and in [4] was > 100 µM throughout. For the same compound, the TGI in [7] and in experiment [8] was > 100 µM each time.

As to `CC(C)C(C/C=C1/CC(CO)(COC(=O)C2CCCCC2)OC1=O)C(C)C` (centres undefined), the TGI in experiment [1] is 38.8 µM; in experiment [9], 34.1 µM; in experiment [2], 29.1 µM; in experiment [10], 40.7 µM; in [3], > 100 µM; in [4], 32.7 µM. Also, the TGI was 28.8 µM in experiment [5], 37.8 µM in experiment [6] and 48.6 µM in experiment [8].

`CCOC(=O)c1c(NCc2ccccc2)n(-c2ccccc2)c(=S)n(-c2ccccc2)c1=O`: the TGI in experiment [1], in experiment [9], in [10], in experiment [3], in experiment [4] and in experiment [5] was > 100 µM in each case. In addition, the TGI in [7] and in experiment [8] was > 100 µM each time.
